Assays:
PD-1/PD-L1 = PD-1/PD-L1 (Homo sapiens, UniProt Q9NZQ7); test: PD-1/PD-L1 biochemical protein-protein interaction assay (ALPHA); assay type: binding; conditions: 0.3 nM His tagged PD-L1, 2.5 nM biotinylated Fc-PD-1, 60 minutes at 25° C., read-out: IC50 PD-L1-PD-1 Alpha IC50-mono PD-L1-fcP-D1
Procedure: Biological Activity PD-1/PD-L1 & CTLA/CD80 Biochemical Protein-Protein Interaction Assay
Compounds were tested in biochemical protein-protein interaction assays to determine if they can specifically block the interaction between the extracellular domains of PD-1/PD-L1 or CTLA/CD80. Binding of the protein pairs is measured using a bead based Amplified Luminescent Proximity Homogeneous Assay (ALPHA) platform. Binding of each protein pair results in proximity of the donor and acceptor beads which leads to an increase in ALPHA signal. Disruption of the protein-protein interaction with a test compound results in a decrease in ALPHA signal. Assays are performed in 25 mM Hepes (pH 7.4), 150 mM NaCl, 3.4 mM EDTA, 0.005% Tween 20, and 0.01% BSA. Final protein concentration in the assays were 0.3 nM (His tagged PD-L1), 2.5 nM (biotinylated Fc-PD-1), 1 nM (His tagged CTLA4) and 1 nM (biotinylated CD80). After an assay reaction time of 60 minutes at 25° C., binding was measured with addition of 20 μg/mL ALPHA assay acceptor beads (anti-His coated) and […] ALPHA assay donor beads (streptavidin coated). IC50 values were calculated from the fit of the dose-response curves to a four-parameter equation. Representative data are shown below in Table 1.

PD-1/PD-L1 interaction = biological target: T1, PD-1/PD-L1 interaction (Homo sapiens, UniProt Q9NZQ7); test: PD-1/PD-L1 NFAT reporter co-culture assay; assay type: cell-based; conditions: Jurkat PD-1 NFAT-luciferase cells co-cultured with aAPC-PD-L1 CHO cells, 6 hrs at 37° C.; read-out: EC50 NFAT Luciferase
T1 construct: expressed in transfected cells; host or cells: CHO cells (aAPC-PD-L1) co-cultured with Jurkat cells overexpressing PD-1 and an NFAT-luciferase reporter
In short: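 Restoration of TCR-driven NFAT luciferase signal: 6 h, 37 °C co-culture of PD-1 Jurkat reporter cells (pre-mixed with compound) on overnight-seeded PD-L1/anti-CD3 CHO monolayer. ONE-Glo luminescence; dose-response fitted to four-parameter equation for EC50.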

T1 sequence (Q9NZQ7 19-290): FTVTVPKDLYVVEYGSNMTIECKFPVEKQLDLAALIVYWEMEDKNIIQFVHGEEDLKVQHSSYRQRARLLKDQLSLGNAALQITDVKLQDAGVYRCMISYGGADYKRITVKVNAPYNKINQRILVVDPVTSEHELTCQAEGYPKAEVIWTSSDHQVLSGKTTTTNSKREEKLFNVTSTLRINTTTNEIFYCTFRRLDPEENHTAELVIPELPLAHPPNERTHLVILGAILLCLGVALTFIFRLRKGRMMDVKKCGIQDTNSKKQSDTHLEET
Chain of PD-1/PD-L1 (Q9NZQ7 19-238 limits assumed): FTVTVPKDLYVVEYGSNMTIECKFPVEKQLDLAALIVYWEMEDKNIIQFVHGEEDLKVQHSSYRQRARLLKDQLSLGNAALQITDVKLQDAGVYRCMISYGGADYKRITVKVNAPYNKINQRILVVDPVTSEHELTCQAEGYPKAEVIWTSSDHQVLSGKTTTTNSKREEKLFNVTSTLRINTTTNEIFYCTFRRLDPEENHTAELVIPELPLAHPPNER

Row | Compound | IC50 (PD-1/PD-L1) [nM] | EC50 (PD-1/PD-L1 interaction) [nM]
1 | COc1nc(O[C@H]2CCc3c(-c4cccc5c4CC[C@@H]5Oc4nc(OC)c(CNC[C@H](O)CC(=O)O)cc4Br)cccc32)c(Br)cc1CNC[C@H](O)CC(=O)O [Example 3, (3R,3′R)-4,4′-((((((1S,1′S)-2,2′,3,3′-tetrahydro-1H,1′H-[4,4′-biindene]-1,1′-diyl)bis(oxy))bis(5-bromo-2-methoxypyridine-6,3-diyl))bis(methylene))bis(azanediyl))bis(3-hydroxybutanoic acid)] | 0.2 | 48
2 | CCNCc1cc(Cl)c(OCc2cccc(-c3cccc(COc4cc(OCc5cncc(C#N)c5)c(CNCC)cc4Cl)c3C)c2C)cc1OCc1cncc(C#N)c1 [Example 12, 5,5′-((((((2,2′-dimethyl-[1,1′-biphenyl]-3,3′-diyl)bis(methylene))bis(oxy))bis(4-chloro-6-((ethylamino)methyl)-3,1-phenylene))bis(oxy))bis(methylene))dinicotinonitrile] | 11.1 | 653
3 | COc1nc(OCc2cccc(-c3cccc(COc4ccc(CN[C@H](CO)C(=O)O)c(OC)n4)c3C)c2C)ccc1CN[C@H](CO)C(=O)O [Example 14] | 2.1 | 13100
4 | COc1nc(OCc2cccc(-c3cccc(COc4nc(OC)c(CN5CC[C@H](O)C5)cc4Br)c3C)c2C)c(Br)cc1CN1CC[C@H](O)C1 [Example 244, (3S,3′S)-1,1′-(((((2,2′-dimethyl-[1,1′-biphenyl]-3,3′-diyl)bis(methylene))bis(oxy))bis(5-bromo-2-methoxypyridine-6,3-diyl))bis(methylene))bis(pyrrolidin-3-ol)] | – | 390
5 | COc1nc(OCc2cccc(-c3cccc(COc4nc(OC)c(CN5CC[C@@H](O)C5)cc4Br)c3C)c2C)c(Br)cc1CN1CC[C@@H](O)C1 [Example 247, (3R,3′R)-1,1′-(((((2,2′-dimethyl-[1,1′-biphenyl]-3,3′-diyl)bis(methylene))bis(oxy))bis(5-bromo-2-methoxypyridine-6,3-diyl))bis(methylene))bis(pyrrolidin-3-ol)] | – | 776
6 | COc1nc(OCc2cccc(-c3cccc(COc4nc(OC)c(C5COCCN5)cc4Br)c3C)c2C)c(Br)cc1C1COCCN1 (stereo not drawn) [Example 249, 3,3′-((((2,2′-dimethyl-[1,1′-biphenyl]-3,3′-diyl)bis(methylene))bis(oxy))bis(5-bromo-2-methoxypyridine-6,3-diyl))dimorpholine] | – | ≥ 50000
7 | COc1nc(OCc2cccc(-c3cccc(COc4nc(OC)c(CN5CC(O)C5)cc4Br)c3C)c2C)c(Br)cc1CN1CC(O)C1 [Example 255, 1,1′-(((((2,2′-dimethyl-[1,1′-biphenyl]-3,3′-diyl)bis(methylene))bis(oxy))bis(5-bromo-2-methoxypyridine-6,3-diyl))bis(methylene))bis(azetidin-3-ol)] | – | ≥ 50000
8 | CNC(=O)C1CN(Cc2cc(Br)c(OCc3cccc(-c4cccc(COc5nc(OC)c(CN6CC(C(=O)NC)C6)cc5Br)c4C)c3C)nc2OC)C1 [Example 256, 1,1′-(((((2,2′-dimethyl-[1,1′-biphenyl]-3,3′-diyl)bis(methylene))bis(oxy))bis(5-bromo-2-methoxypyridine-6,3-diyl))bis(methylene))bis(N-methylazetidine-3-carboxamide)] | – | 758
9 | Cc1c(COc2cc(OCc3cncc(C#N)c3)c(CN3CC[C@H]3CO)cc2Br)cccc1-c1cccc(COc2cc(OCc3cncc(C#N)c3)c(CN3CC[C@H]3CO)cc2Br)c1C [Example 260, 5,5′-((((((2,2′-dimethyl-[1,1′-biphenyl]-3,3′-diyl)bis(methylene))bis(oxy))bis(4-bromo-6-(((S)-2-(hydroxymethyl)azetidin-1-yl)methyl)-3,1-phenylene))bis(oxy))bis(methylene))dinicotinonitrile] | – | 463
10 | COc1nc(OCc2cccc(-c3cccc(COc4nc(OC)c(CNCCN5CCCS5(=O)=O)cc4Br)c3C)c2C)c(Br)cc1CNCCN1CCCS1(=O)=O [Example 264, 2,2′-(((((((2,2′-dimethyl-[1,1′-biphenyl]-3,3′-diyl)bis(methylene))bis(oxy))bis(5-bromo-2-methoxypyridine-6,3-diyl))bis(methylene))bis(azanediyl))bis(ethane-2,1-diyl))bis(isothiazolidine 1,1-dioxide)] | – | 1290
11 | COc1nc(OCc2cccc(-c3cccc(COc4nc(OC)c(CNCCNS(C)(=O)=O)cc4Br)c3C)c2C)c(Br)cc1CNCCNS(C)(=O)=O [Example 266, N,N′-(((((((2,2′-dimethyl-[1,1′-biphenyl]-3,3′-diyl)bis(methylene))bis(oxy))bis(5-bromo-2-methoxypyridine-6,3-diyl))bis(methylene))bis(azanediyl))bis(ethane-2,1-diyl))dimethanesulfonamide] | – | 1380

Second part, the compound after the results:

Row | IC50 (PD-1/PD-L1) [nM] | EC50 (PD-1/PD-L1 interaction) [nM] | Compound
12 | – | 993 | COc1nc(OCc2cccc(-c3cccc(COc4nc(OC)c(CN(C)CCN5CCOCC5)cc4Br)c3C)c2C)c(Br)cc1CN(C)CCN1CCOCC1 [Example 268, N,N′-(((((2,2′-dimethyl-[1,1′-biphenyl]-3,3′-diyl)bis(methylene))bis(oxy))bis(5-bromo-2-methoxypyridine-6,3-diyl))bis(methylene))bis(N-methyl-2-morpholinoethan-1-amine)]
13 | – | ≥ 50000 | COc1nc(OCc2cccc(-c3cccc(COc4nc(OC)c(CN5CCNC(=O)C5)cc4Br)c3C)c2C)c(Br)cc1CN1CCNC(=O)C1 [Example 270, 4,4′-(((((2,2′-dimethyl-[1,1′-biphenyl]-3,3′-diyl)bis(methylene))bis(oxy))bis(5-bromo-2-methoxypyridine-6,3-diyl))bis(methylene))bis(piperazin-2-one)]
14 | – | 1200 | CNC(=O)[C@](C)(CO)NCc1cc(Br)c(OCc2cccc(-c3cccc(COc4nc(OC)c(CN[C@@](C)(CO)C(=O)NC)cc4Br)c3C)c2C)nc1OC [Example 274, (2S,2′S)-2,2′-((((((2,2′-dimethyl-[1,1′-biphenyl]-3,3′-diyl)bis(methylene))bis(oxy))bis(5-bromo-2-methoxypyridine-6,3-diyl))bis(methylene))bis(azanediyl))bis(3-hydroxy-N,2-dimethylpropanamide)]
15 | – | ≥ 50000 | Cc1c(OC(F)(F)c2ccc(CNCC(=O)O)cc2)cccc1-c1cccc(OC(F)(F)c2ccc(CNCC(=O)O)cc2)c1C [Example 278, 2,2′-((((((2,2′-dimethyl-[1,1′-biphenyl]-3,3′-diyl)bis(oxy))bis(difluoromethylene))bis(4,1-phenylene))bis(methylene))bis(azanediyl))diacetic acid]
16 | – | 1460 | Cc1c(COc2cc(OCc3cccc(C#N)c3)c(CNCCO)cc2Cl)cccc1-c1cccc(COc2cc(OCc3cccc(C#N)c3)c(CNCCO)cc2Cl)c1C [Example 284, 3,3′-((((((2,2′-dimethyl-[1,1′-biphenyl]-3,3′-diyl)bis(methylene))bis(oxy))bis(4-chloro-6-(((2-hydroxyethyl)amino)methyl)-3,1-phenylene))bis(oxy))bis(methylene))dibenzonitrile]
17 | – | 9690 | COc1nc(OCc2cccc(-c3cccc(COc4ccc(CNC[C@@H](O)CC(=O)O)c(OC)n4)c3F)c2C)ccc1CNC[C@@H](O)CC(=O)O [Example 285, (3S,3′S)-4,4′-((((((2-fluoro-2′-methyl-[1,1′-biphenyl]-3,3′-diyl)bis(methylene))bis(oxy))bis(2-methoxypyridine-6,3-diyl))bis(methylene))bis(azanediyl))bis(3-hydroxybutanoic acid)]
18 | – | 232 | Cc1c(COc2cc(OCc3cncc(C#N)c3)c(CNC[C@@H](O)CC(=O)O)cc2Cl)cccc1-c1cccc(-c2nc3ccc(CNC[C@@H](O)CC(=O)O)cc3s2)c1C [Example 286, (S)-4-(((2-(3′-((4-((((S)-3-carboxy-2-hydroxypropyl)amino)methyl)-2-chloro-5-((5-cyanopyridin-3-yl)methoxy)phenoxy)methyl)-2,2′-dimethyl-[1,1′-biphenyl]-3-yl)benzo[d]thiazol-6-yl)methyl)amino)-3-hydroxybutanoic acid]
19 | 0.143 | – | Cc1c(COc2cc(OCc3cncc(C#N)c3)c(CNCCO)cc2Cl)cccc1-c1cccc(-c2ccc(CNCCCC(=O)O)cc2)c1C [Example 334, 4-(((3″-((2-chloro-5-((5-cyanopyridin-3-yl)methoxy)-4-(((2-hydroxyethyl)amino)methyl)phenoxy)methyl)-2′,2″-dimethyl-[1,1′:3′,1″-terphenyl]-4-yl)methyl)amino)butanoic acid]
20 | – | 51 | Cc1c(COc2nc(OCc3cc(C#N)cc(C#N)c3)c(CNC[C@@H](O)CC(=O)O)cc2Cl)cccc1-c1cccc(-c2ccc(OCCNCCO)cc2)c1C [Example 472]
21 | 0.317 | – | N#Cc1cncc(COc2nc(OCc3cccc(-c4cccc(COc5nc(OCc6cncc(C#N)c6)c(CNC[C@@H](O)CC(=O)O)cc5Br)c4Cl)c3Cl)c(Br)cc2CNC[C@@H](O)CC(=O)O)c1 [Example 563]

Source: patent US12590062B2, “PD-1/PD-L1 inhibitors” (Gilead Sciences, Inc., priority 2017, dated 2026)
